Patent publication US20240299353A1, “COMPOSITIONS AND METHODS FOR TREATING […] 5-MEO-DMT” (Alvarius Pharmaceuticals Ltd., priority 2021, published 2024)

Assays:
[1] = test system: hippocampal proteins; experiment: Hippocampal LC-MS/MS proteomics, chronic cocaine with single psychedelic administration; assay type: in vivo, Male Wister rats; details: for differential expression of proteins in the control hippocampus: single i.p. dose (5-MeO-DMT 5 mg/kg, LSD 0.14 mg/kg, psilocybin 1 mg/kg, DOI 1 mg/kg) vs saline-saline, p<0.05, FC ±20%; for differential expression of proteins in the chronic cocaine hippocampus: single i.p. dose after 14 days cocaine 20 mg/kg (5-MeO-DMT 5, LSD 0.14, psilocybin 1, DOI 1 mg/kg) vs cocaine-saline; for reversal of chronic cocaine mediated proteomic changes in the hippocampus: single treatment (5-MeO-DMT 5, LSD 0.14, psilocybin 1, DOI 1 mg/kg i.p.)
Protocol: (§1) Animals were then randomly allocated to one of five groups and received a single i.p. injection of one of vehicle, 5 mg/kg 5-Meo-DMT, 0.14 mg/kg LSD, 1 mg/kg psilocybin, or 1 mg/kg DOI. On day 15, animals were euthanised and the hippocampus blunt dissected, snap frozen in liquid nitrogen and stored at −80° C. until further processing.
Protein from hippocampal tissue was processed for liquid chromatography tandem Mass Spectrometry (LC-MS/MS). Samples were run on a Thermo Scientific Q Exactive Mass Spectrometer connected to a Dionex Ultimate 3000 (RSLCnano) chromatography system in the UCD Conway Institute Core Mass Spectrometry Facility. Peptide and protein identification of MS/MS spectra were searched against the rat UniProt database using carbamidomethylation (C) as a fixed modification and acetylation (protein N terminus) and oxidation (M) as variable modifications with a false discovery rate filtering of 0.01. MaxQuant was using to generate label-free quantitative (LFQ) ion intensities and the Perseus statistical software contained in the MaxQuant package was used to analyse LFQ ion intensity. Statistical significance (p<0.05, FC±20%) of mean LFQ intensity between treatment groups was determined by two sample t-test. […] Networks were visualised using the stringApp (version 1.6.0) plugin for the Cytoscape software platform (version 3.8.2).

[2] = test system: top 10 cocaine-dysregulated biological pathways in the hippocampus; experiment: Biological pathway analysis (IPA) of transcriptomics, cocaine-dysregulated pathways; assay type: in vivo, Male Wister rats; details: single treatment
Protocol: as §1
Subsequent pathway analyses were done using Ingenuity Pathway Analysis (IPA). Analysis settings for IPA included the Ingenuity Knowledge Base (Genes Only), direct and indirect relationships, and endogenous chemicals of the previously filtered list of differentially expressed genes. IPA was filtered to only consider molecules where the species were human, rat, or mouse and the confidence can be experimentally observed. Canonical pathways were utilized in pathway analysis, where the spreadsheet organized the values of significance to −log(p-value) and the rate of regulation to the z-score. Negative z-score values indicate downregulation and positive values indicate upregulation.

[3] = test system: primary hippocampal neurons; experiment: Antagonist pre-treatment studies of neuronal structural change, Sholl analysis; assay type: cell-based, rat; details: for neuronal structural complexity (normalised AUC): meta-analysis
Protocol: Primary hippocampal cultures were grown on 18 mm glass coverslips at a density of 1×10^6 cells as described. On 3 DIV all cells underwent a full medium change. […] On 4 DIV, all cells underwent a second full medium change. Cells in the combination group were treated with 2 μM 5-MeO-DMT for a further 24 hours with all other groups beginning a 24-hour treatment. After treatment was completed the cells were fixed and processed as described below.
Based on the findings with other psychedelic drugs that share structural and behavioral similarities to 5-MeO-DMT we selected ANA-12 (Sigma), an antagonist of TrkB, the BDNF receptor, and rapamycin (ThermoFischer) an antagonist of the mammalian target of rapamycin (mTOR). Due to the affinity and known behavioral change induced by 5-MeO-DMT at the 5-HT1AR and 5-HT2AR we assessed their contribution to structural changes mediated by 5-MeO-DMT. The receptors were antagonized with WAY-100635 maleate (Tocris) or Ketanserin (Axxora), respectively. For all antagonist studies the antagonist under investigation was added 15 mins prior to drug treatment. […] ANA-12, Ketanserin and rapamycin were dissolved in dimethyl sulfoxide (DMSO) with a final concentration of 0.01-0.04% for treatment. WAY100635 was dissolved in sterile dH2O.
After termination of drug treatment coverslips were processed and imaged as outlined for immunocytochemistry. In all instances NeuN antibody staining was used to visualize projections from the cell body. Images were analyzed using the Simple Neurite Tracer and Sholl analysis plug-ins for ImageJ Fiji. For the Sholl analysis circle radii of 2 μm increments were used. All images were taken and analyzed by an experimenter blinded to treatment conditions.
Statistical Analysis—Data are represented as mean±SEM. Statistical analyses were performed using GraphPad Prism (version 5). For analyses involving comparison of three or more groups, a one-way ANOVA with Bonferroni's post-hoc test was utilized where appropriate. No statistics were calculated for the individual points of the Sholl plots, instead, statistical analyses were performed on the aggregate data, the area under the curve (AUC) of the Sholl plot. Secondary measurements were the Nmax, the maximum number of intersections measured by the Sholl analysis, which indicated the number of projections emanating from a neuron and the average length of primary neurites originating from the cell soma.

[4] = molecular target: 5-HT2AR (Homo sapiens, UniProt P28223); details: metabolite of 5-MeO-DMT; cited from earlier work
[5] = ketanserin 100 μM treated groups relative to control

5-HT2AR, sequence (P28223 whole entry): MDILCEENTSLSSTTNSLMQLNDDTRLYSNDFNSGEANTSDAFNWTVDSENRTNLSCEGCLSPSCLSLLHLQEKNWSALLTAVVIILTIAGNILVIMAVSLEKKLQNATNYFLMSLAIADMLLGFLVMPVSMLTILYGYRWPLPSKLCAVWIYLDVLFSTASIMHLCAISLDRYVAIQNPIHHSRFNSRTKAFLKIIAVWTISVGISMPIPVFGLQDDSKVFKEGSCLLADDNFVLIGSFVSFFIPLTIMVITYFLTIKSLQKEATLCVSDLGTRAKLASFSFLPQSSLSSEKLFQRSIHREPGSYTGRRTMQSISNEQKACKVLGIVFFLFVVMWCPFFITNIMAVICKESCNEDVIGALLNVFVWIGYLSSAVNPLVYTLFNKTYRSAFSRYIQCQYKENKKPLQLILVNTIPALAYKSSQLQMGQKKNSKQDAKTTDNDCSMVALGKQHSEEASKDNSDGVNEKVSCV

COc1cc(CC(C)N)c(OC)cc1I (stereo not drawn) [DOI, 2,5-Dimethoxy-4-iodoamphetamine]
differential expression of proteins in the control hippocampus [1]: 79 proteins | differential expression of proteins in the chronic cocaine hippocampus [1]: 55 proteins | reversal of chronic cocaine mediated proteomic changes in the hippocampus [1]: 70%

CN(C)CCc1c[nH]c2cccc(OP(=O)(O)O)c12 [psilocybin, Psilocybin]
differential expression of proteins in the control hippocampus [1]: 91 proteins | differential expression of proteins in the chronic cocaine hippocampus [1]: 45 proteins | reversal of chronic cocaine mediated proteomic changes in the hippocampus [1]: 74% | number of the top 10 dysregulated pathways corrected [2]: 7 pathways | top 10 cocaine-dysregulated biological pathways corrected [2]: 70%

O=C(Nc1ccccc1C(=O)NC1CCCCNC1=O)c1cc2ccccc2s1 (stereo not drawn) [ANA-12]
average neurite length ([3]; ANA-12 10 μM pre-treatment, 5-MeO-DMT-induced increase): blocked | AUC of the Sholl plot ([3]; ANA-12 10 μM, 15 min pre-treatment before 5-MeO-DMT, cocaine or combination): prevented the 5-Meo-, cocaine- or combination-induced increase in AUC | maximum number of intersections (Nmax) ([3]; ANA-12 pre-treated combination group relative to vehicle pre-treated combination group): significantly reduced | AUC of the Sholl plot ([3]; control+ANA-12 vs control+vehicle (basal complexity)): no difference in AUC | neuronal structural complexity (normalised AUC) ([3]; ANA-12 pre-treatment): prevented the 5-Meo-, cocaine- or combination-induced increase in complexity

CN(C)CCc1c[nH]c2ccc(O)cc12 [bufotenine, 5-hydroxy,N,Ndimethyltryptamine]
affinity for the 5-HT2AR relative to the parent compound [4]: much higher affinity for the 5-HT2AR than the parent compound

O=C(c1ccc(F)cc1)C1CCN(CCn2c(=O)[nH]c3ccccc3c2=O)CC1 [Ketanserin]
average neurite length [3, 5]: significantly decreased | maximum number of intersections (Nmax) [3, 5]: significantly reduced | normalised AUC of the Sholl plot ([3]; ketanserin 100 μM, 15 min pre-treatment, all treatment groups): significantly reduced normalised AUC across all treatment groups | neuronal structural complexity (normalised AUC) ([3]; ketanserin pre-treatment): significantly reduced normalised AUC across all treatment groups

CCN(CC)C(=O)[C@@H]1C=C2c3cccc4[nH]cc(c34)C[C@H]2N(C)C1 [LSD, Lysergic acid diethylamide]
differential expression of proteins in the control hippocampus [1]: 73 proteins | differential expression of proteins in the chronic cocaine hippocampus [1]: 57 proteins | reversal of chronic cocaine mediated proteomic changes in the hippocampus [1]: 59% | number of the top 10 dysregulated pathways corrected [2]: 5 pathways | top 10 cocaine-dysregulated biological pathways corrected [2]: 50%

COc1ccccc1N1CCN(CCN(C(=O)C2CCCCC2)c2ccccn2)CC1.O=C(O)/C=C\C(=O)O [WAY100635, WAY-100635 maleate]
average neurite length ([3]; WAY100635 100 nM pre-treatment before 5-MeO-DMT): prevented the 5-Meo-mediated increase in neurite length | maximum number of intersections (Nmax) ([3]; WAY100635 100 nM treated groups relative to vehicle treated pairings): significantly reduced | normalised AUC of the Sholl plot ([3]; WAY100635 100 nM, 15 min pre-treatment before 5-MeO-DMT or cocaine): prevented the 5-Meo- and cocaine-induced increase in normalised AUC | neuronal structural complexity (normalised AUC) ([3]; WAY100635 pre-treatment): prevented the increase in complexity mediated by all treatments
